Laboratory results from publication PMC8143347, “Metabolism and Interspecies Variation of IMMH-010, a Programmed Cell Death Ligand 1 Inhibitor Prodrug” (Pharmaceutics, 2021).
“Also recorded” adds a separate entry of the source.

How the values were obtained:
[1] = target: T1, CES2 (Homo sapiens, UniProt O00748); test: Chemical inhibition of IMMH-010 hydrolysis in HLM, selective CES2 inhibitor; assay type: in vitro ADME; design: tissue BD Gentest; host or cells: pooled mixed-gender human liver microsomes; details: 50 μM inhibitor, IMMH-010 10 µM, HLM 0.2 mg/mL, 15 min
T1 sequence (O00748 27-559): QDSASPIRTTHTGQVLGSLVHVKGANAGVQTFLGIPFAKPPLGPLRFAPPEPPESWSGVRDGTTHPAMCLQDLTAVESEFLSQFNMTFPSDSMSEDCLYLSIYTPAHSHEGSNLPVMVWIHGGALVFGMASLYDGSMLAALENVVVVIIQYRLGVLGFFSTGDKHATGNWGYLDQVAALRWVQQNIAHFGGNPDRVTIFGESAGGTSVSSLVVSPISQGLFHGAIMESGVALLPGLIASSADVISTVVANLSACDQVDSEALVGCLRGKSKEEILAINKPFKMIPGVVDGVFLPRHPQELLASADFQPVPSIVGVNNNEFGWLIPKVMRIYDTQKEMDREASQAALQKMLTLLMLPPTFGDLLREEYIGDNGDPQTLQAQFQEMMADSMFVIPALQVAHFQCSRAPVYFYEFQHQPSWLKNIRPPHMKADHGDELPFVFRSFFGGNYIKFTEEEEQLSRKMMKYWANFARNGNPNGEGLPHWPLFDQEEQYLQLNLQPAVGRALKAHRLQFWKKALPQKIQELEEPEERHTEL
Protocol: (§1) Selective chemical inhibitors and recombinant human enzymes were used to investigate the esterase responsible for IMMH-010 metabolism in HLM. The selective CES1 and CES2 inhibitors were digitonin (100 μM) and telmisartan (50 μM), respectively. IMMH-010 (10 µM) was incubated with HLM (0.2 mg/mL) at 37 °C for 0 and 15 min in the presence of chemical inhibitors. Control samples were incubated without inhibitors.

[2] = target: T2, CES1 (Homo sapiens, UniProt P23141); test: Chemical inhibition of IMMH-010 hydrolysis in HLM, selective CES1 inhibitor; assay type: in vitro ADME; design: tissue BD Gentest; host or cells: pooled mixed-gender human liver microsomes; details: 100 μM inhibitor, IMMH-010 10 µM, HLM 0.2 mg/mL, 15 min, vs no inhibitor group
T2 sequence (P23141 18-567): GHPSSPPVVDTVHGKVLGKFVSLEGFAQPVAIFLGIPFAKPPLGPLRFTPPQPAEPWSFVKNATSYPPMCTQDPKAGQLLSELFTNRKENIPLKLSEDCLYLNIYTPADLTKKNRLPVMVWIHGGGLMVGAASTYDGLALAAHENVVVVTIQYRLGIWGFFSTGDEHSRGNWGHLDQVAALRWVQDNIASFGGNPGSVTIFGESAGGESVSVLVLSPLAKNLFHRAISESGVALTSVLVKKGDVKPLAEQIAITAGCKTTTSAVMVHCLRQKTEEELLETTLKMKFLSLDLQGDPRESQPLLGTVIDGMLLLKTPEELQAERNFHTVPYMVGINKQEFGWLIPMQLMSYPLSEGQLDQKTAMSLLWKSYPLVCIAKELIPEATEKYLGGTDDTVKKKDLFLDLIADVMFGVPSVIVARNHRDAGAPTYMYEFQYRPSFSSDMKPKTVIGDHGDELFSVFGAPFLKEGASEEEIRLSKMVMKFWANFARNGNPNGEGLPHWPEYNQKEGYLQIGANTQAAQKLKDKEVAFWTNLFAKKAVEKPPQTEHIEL
Protocol: as §1

| Compound | inhibition of the formation of YPD-29B [1] | inhibition of the formation of YPD-29B [2] |
| --- | --- | --- |
| CCCc1nc2c(C)cc(-c3nc4ccccc4n3C)cc2n1Cc1ccc(-c2ccccc2C(=O)O)cc1 [telmisartan] | did not inhibit; also recorded: no inhibition |  |
| C[C@@H]1CC[C@@]2(OC1)O[C@H]1[C@@H](O)[C@H]3[C@@H]4CC[C@H]5C[C@@H](O[C@@H]6O[C@H](CO)[C@H](O[C@@H]7O[C@H](CO)[C@@H](O)[C@H](O[C@@H]8OC[C@@H](O)[C@H](O)[C@H]8O)[C@H]7O[C@@H]7O[C@H](CO)[C@H](O)[C@H](O[C@@H]8O[C@H](CO)[C@@H](O)[C@H](O)[C@H]8O)[C@H]7O)[C@H](O)[C@H]6O)[C@H](O)C[C@]5(C)[C@H]4CC[C@]3(C)[C@H]1[C@@H]2C [digitonin] |  | 35.8% |
